Reference: patent publication US10517889B2, “Modulators of SMAD7 expression” (Ionis Pharmaceuticals, Inc., priority 2017, dated 2019)
Strand notation (5' to 3'): a small letter for the sugar, then the base; units joined by * are phosphorothioate-linked, units joined directly phosphodiester-linked; [ ] holds rarer units or linkages, { } end groups; capitals alone tell only the bases. k = constrained ethyl (cEt); [5mC] = 5-methylcytosine; d = 2'-deoxy (DNA)

These substances were tested on human SMAD7 mRNA (assay: Antisense inhibition of human SMAD7 mRNA expression in Hep3B cells by 3-10-3 cEt gapmers, 10,000 nM, electroporation (Example 2)). Conditions: Hep3B cells, electroporation with 10,000 nM antisense oligonucleotide, approximately 24 hours, RTS5062, percent inhibition of SMAD7 mRNA relative to untreated control cells.
Format: cell-based
Procedure, shortened: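 Hep3B, 20,000 cells/well; electroporation, 10,000 nM ASO; ~24 h. Readout: SMAD7 mRNA by qRT-PCR (RTS5062), RIBOGREEN-normalised; % inhibition vs untreated.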
“799603 (kG*k[5mC]*k[5mC]*d[5mC]*dA*dT*dT*dA*dT*dG*dA*dA*dT*kA*k[5mC]*kA; antisense) [compound 799603]” was tested, and the “% Inhibition” value was 52%.
In the case of “799604 (k[5mC]*kA*kT*d[5mC]*dA*d[5mC]*d[5mC]*dT*d[5mC]*d[5mC]*d[5mC]*d[5mC]*dT*k[5mC]*k[5mC]*kA; antisense) [compound 799604]”, the “% Inhibition” value is reported as 0%.
In the case of “799606 (kT*kT*kT*dA*d[5mC]*dA*dA*dA*dA*d[5mC]*dT*d[5mC]*dT*k[5mC]*kT*kG; antisense) [compound 799606]”, the “% Inhibition” value is reported as 50%.
“799609 (k[5mC]*k[5mC]*k[5mC]*d[5mC]*dA*dT*dG*dG*dA*dA*d[5mC]*dG*dA*kT*k[5mC]*kA; antisense) [compound 799609]” was tested, and the “% Inhibition” value was 41%.
With “799610 (kG*kG*kG*dA*dG*dA*dA*dA*d[5mC]*dT*d[5mC]*d[5mC]*dT*k[5mC]*kA*kG; antisense) [compound 799610]” the “% Inhibition” value was 45%.
In the case of “799611 (kT*kG*kT*dG*dA*dA*dA*dG*dA*dG*dG*d[5mC]*dT*k[5mC]*kA*kG; antisense) [compound 799611]”, the “% Inhibition” value is reported as 37%.
In the case of “799612 (kA*kA*kA*d[5mC]*dA*dG*d[5mC]*dA*d[5mC]*dA*d[5mC]*dA*dG*kG*kG*k[5mC]; antisense) [compound 799612]”, the “% Inhibition” value is reported as 50%.
“799622 (kT*kT*k[5mC]*dT*dA*dA*dA*dA*dA*dT*dG*dT*d[5mC]*k[5mC]*k[5mC]*kA; antisense) [compound 799622]” was tested, and the “% Inhibition” value was 45%.
With “799623 (kT*kA*k[5mC]*dA*dA*dT*d[5mC]*dT*d[5mC]*d[5mC]*dT*dG*dG*kA*kA*kG; antisense) [compound 799623]” the “% Inhibition” value was 45%.
In the case of “799625 (kA*kA*kT*dG*dA*dA*dA*dG*dT*dA*d[5mC]*dA*dA*kT*k[5mC]*kT; antisense) [compound 799625]”, the “% Inhibition” value is reported as 31%.
“799626 (kA*kG*k[5mC]*dT*dT*dG*d[5mC]*dA*d[5mC]*d[5mC]*d[5mC]*dA*dG*k[5mC]*kA*kA; antisense) [compound 799626]” was tested, and the “% Inhibition” value was 41%.
With “799627 (k[5mC]*kA*k[5mC]*dA*dA*dG*d[5mC]*dT*dT*dG*d[5mC]*dA*d[5mC]*k[5mC]*k[5mC]*kA; antisense) [compound 799627]” the “% Inhibition” value was 48%.
With “799628 (kA*k[5mC]*kA*d[5mC]*dA*d[5mC]*dA*d[5mC]*dA*dA*dG*d[5mC]*dT*kT*kG*k[5mC]; antisense) [compound 799628]” the “% Inhibition” value was 38%.
In the case of “799629 (kT*kA*k[5mC]*dA*d[5mC]*dA*d[5mC]*dA*d[5mC]*dA*dA*dG*d[5mC]*kT*kT*kG; antisense) [compound 799629]”, the “% Inhibition” value is reported as 24%.
For “799630 (k[5mC]*k[5mC]*k[5mC]*dT*dA*dT*d[5mC]*d[5mC]*d[5mC]*dA*dG*dA*dG*k[5mC]*k[5mC]*kT; antisense) [compound 799630]”, the “% Inhibition” value was 43%.
“799642 (kG*k[5mC]*kA*dA*dA*dT*d[5mC]*d[5mC]*dT*dT*dT*d[5mC]*d[5mC]*kA*kT*k[5mC]; antisense) [compound 799642]” was tested, and the “% Inhibition” value was 53%.
For “799643 (kG*kT*kG*dA*dT*d[5mC]*d[5mC]*d[5mC]*d[5mC]*dG*dG*dA*dA*kA*kG*k[5mC]; antisense) [compound 799643]”, the “% Inhibition” value was 26%.
“799644 (kT*kT*k[5mC]*d[5mC]*dA*dA*d[5mC]*dA*d[5mC]*dA*dT*dG*d[5mC]*kT*k[5mC]*kT; antisense) [compound 799644]” was tested, and the “% Inhibition” value was 31%.
In the case of “799645 (k[5mC]*kA*kA*dA*dG*dA*dT*dG*dA*dT*dA*dG*d[5mC]*kT*kT*k[5mC]; antisense) [compound 799645]”, the “% Inhibition” value is reported as 45%.
“799646 (antisense k[5mC]*kA*kG*dA*dA*dA*d[5mC]*dT*d[5mC]*d[5mC]*dA*dG*dA*kT*kG*kG) [compound 799646]” was tested, and the “% Inhibition” value was 18%.
“799647 (antisense kA*k[5mC]*kA*dG*dA*dA*dA*d[5mC]*dT*d[5mC]*d[5mC]*dA*dG*kA*kT*kG) [compound 799647]” was tested, and the “% Inhibition” value was 0%.

Same assay, conditions: Hep3B cells, electroporation, 10,000 nM antisense oligonucleotide, approximately 24 hours, RTS5062, relative to untreated control cells
In the case of “799595 (k[5mC]*kT*k[5mC]*dT*dG*dA*dA*d[5mC]*dG*dG*dA*dA*dA*kG*kA*kA; antisense) [compound 799595]”, the “% inhibition of SMAD7 mRNA expression” value is reported as 35%.
“799597 (kA*kA*k[5mC]*dT*d[5mC]*dT*dG*dA*dA*d[5mC]*dG*dG*dA*kA*kA*kG; antisense) [compound 799597]” was tested, and the “% inhibition of SMAD7 mRNA expression” value was 46%.
For “799598 (k[5mC]*kA*kA*d[5mC]*dT*d[5mC]*dT*dG*dA*dA*d[5mC]*dG*dG*kA*kA*kA; antisense) [compound 799598]”, the “% inhibition of SMAD7 mRNA expression” value was 39%.
With “799599 (k[5mC]*k[5mC]*kA*dA*d[5mC]*dT*d[5mC]*dT*dG*dA*dA*d[5mC]*dG*kG*kA*kA; antisense) [compound 799599]” the “% inhibition of SMAD7 mRNA expression” value was 12%.
In the case of “799600 (kG*k[5mC]*kA*d[5mC]*d[5mC]*dA*dA*d[5mC]*dT*d[5mC]*dT*dG*dA*kA*k[5mC]*kG; antisense) [compound 799600]”, the “% inhibition of SMAD7 mRNA expression” value is reported as 63%.
“799601 (kG*kA*kA*dT*dA*d[5mC]*dA*d[5mC]*dT*dG*d[5mC]*dA*d[5mC]*k[5mC]*kA*kA; antisense) [compound 799601]” was tested, and the “% inhibition of SMAD7 mRNA expression” value was 48%.
In the case of “799602 (k[5mC]*k[5mC]*kA*dT*dT*dA*dT*dG*dA*dA*dT*dA*d[5mC]*kA*k[5mC]*kT; antisense) [compound 799602]”, the “% inhibition of SMAD7 mRNA expression” value is reported as 51%.
“799613 (kT*k[5mC]*kA*d[5mC]*dA*dT*dT*d[5mC]*dG*dG*d[5mC]*dT*dG*kT*kT*kT; antisense) [compound 799613]” was tested, and the “% inhibition of SMAD7 mRNA expression” value was 17%.
“799614 (kG*kG*k[5mC]*d[5mC]*dT*dT*dT*dG*dA*dG*d[5mC]*dA*d[5mC]*kA*k[5mC]*k[5mC]; antisense) [compound 799614]” was tested, and the “% inhibition of SMAD7 mRNA expression” value was 37%.
In the case of “799615 (kG*kG*kA*dG*dA*dG*dG*dA*d[5mC]*d[5mC]*dG*dG*d[5mC]*k[5mC]*kT*kT; antisense) [compound 799615]”, the “% inhibition of SMAD7 mRNA expression” value is reported as 24%.
“799616 (kG*kG*k[5mC]*dT*d[5mC]*d[5mC]*dT*dA*d[5mC]*d[5mC]*d[5mC]*dG*d[5mC]*k[5mC]*k[5mC]*kA; antisense) [compound 799616]” was tested, and the “% inhibition of SMAD7 mRNA expression” value was 80%.
“799617 (k[5mC]*kA*kA*d[5mC]*d[5mC]*dT*dG*d[5mC]*dA*dG*d[5mC]*d[5mC]*dA*kG*k[5mC]*kA; antisense) [compound 799617]” was tested, and the “% inhibition of SMAD7 mRNA expression” value was 50%.
For “799618 (kA*kA*k[5mC]*dA*dA*dA*dG*d[5mC]*dT*dG*d[5mC]*dA*dA*kT*kG*k[5mC]; antisense) [compound 799618]”, the “% inhibition of SMAD7 mRNA expression” value was 0%.
“799619 (kA*k[5mC]*kG*dA*d[5mC]*d[5mC]*dA*dG*dG*d[5mC]*d[5mC]*dT*dG*kT*k[5mC]*kG; antisense) [compound 799619]” was tested, and the “% inhibition of SMAD7 mRNA expression” value was 9%.
With “799620 (kT*kA*kA*d[5mC]*dG*dA*d[5mC]*d[5mC]*dA*dG*dG*d[5mC]*d[5mC]*kT*kG*kT; antisense) [compound 799620]” the “% inhibition of SMAD7 mRNA expression” value was 31%.
“799621 (kT*kT*kT*d[5mC]*dA*d[5mC]*dT*dG*d[5mC]*dA*dA*dG*dT*k[5mC]*k[5mC]*k[5mC]; antisense) [compound 799621]” was tested, and the “% inhibition of SMAD7 mRNA expression” value was 49%.
In the case of “799632 (k[5mC]*kT*kG*d[5mC]*d[5mC]*dA*dA*dA*dT*d[5mC]*dA*d[5mC]*dA*kA*kA*kG; antisense) [compound 799632]”, the “% inhibition of SMAD7 mRNA expression” value is reported as 48%.
For “799633 (kA*kG*kA*d[5mC]*dT*dG*d[5mC]*d[5mC]*dA*dA*dA*dT*d[5mC]*kA*k[5mC]*kA; antisense) [compound 799633]”, the “% inhibition of SMAD7 mRNA expression” value was 25%.
With “799634 (k[5mC]*kA*kG*dA*d[5mC]*dT*dG*d[5mC]*d[5mC]*dA*dA*dA*dT*k[5mC]*kA*k[5mC]; antisense) [compound 799634]” the “% inhibition of SMAD7 mRNA expression” value was 23%.
For “799635 (kA*k[5mC]*kA*dG*dA*d[5mC]*dT*dG*d[5mC]*d[5mC]*dA*dA*dA*kT*k[5mC]*kA; antisense) [compound 799635]”, the “% inhibition of SMAD7 mRNA expression” value was 28%.
In the case of “799636 (k[5mC]*kA*k[5mC]*dA*dG*dA*d[5mC]*dT*dG*d[5mC]*d[5mC]*dA*dA*kA*kT*k[5mC]; antisense) [compound 799636]”, the “% inhibition of SMAD7 mRNA expression” value is reported as 55%.
For “799637 (kG*k[5mC]*kA*d[5mC]*dA*dG*dA*d[5mC]*dT*dG*d[5mC]*d[5mC]*dA*kA*kA*kT; antisense) [compound 799637]”, the “% inhibition of SMAD7 mRNA expression” value was 48%.
In the case of “799638 (kA*kG*kT*d[5mC]*dA*dG*dG*d[5mC]*dA*d[5mC]*dA*dG*dA*k[5mC]*kT*kG; antisense) [compound 799638]”, the “% inhibition of SMAD7 mRNA expression” value is reported as 53%.
With “799639 (k[5mC]*k[5mC]*kA*dG*dA*dG*dA*dG*dT*d[5mC]*dA*dG*dG*k[5mC]*kA*k[5mC]; antisense) [compound 799639]” the “% inhibition of SMAD7 mRNA expression” value was 34%.
“799640 (k[5mC]*kA*kA*dG*dG*dA*d[5mC]*d[5mC]*dT*dG*dT*dT*d[5mC]*kT*kG*kG; antisense) [compound 799640]” was tested, and the “% inhibition of SMAD7 mRNA expression” value was 40%.
With “799641 (k[5mC]*kA*kT*d[5mC]*dA*dG*dA*d[5mC]*d[5mC]*dT*d[5mC]*dT*d[5mC]*k[5mC]*k[5mC]*kA; antisense) [compound 799641]” the “% inhibition of SMAD7 mRNA expression” value was 33%.
